Laboratory results published in ChEMBL document CHEMBL4665541, “Search for new therapeutic options for the uncommon pathogen Mycobacterium chimaera: an open drug discovery approach” (Lancet Microbe, 2021).

Tested on: Mycobacterium intracellulare subsp. chimaera
Assay: (§1) Inhibition of mycobacterial growth using the resazurin microtitre cell viability assay (REMA), compounds at final concentration of 20 µM (2% v/v DMSO). Hits were classed as compounds that inhibited bacterial growth by 70% or more compared to drug-free controls.
Assay type: functional, organism-based
Parameters: conc 20 uM
Settings: NCTC13781

| Substance | Survival |
| --- | --- |
| MMV024937 | 111% |
| MMV026020 | 105% |
| MMV026313 | 86.2% |
| MMV026356 | 89.7% |
| MMV026468 | 96.1% |
| MMV026490 | 104% |
| MMV026550 | 98.7% |
| MMV028694 | 91.4% |
| MMV030734 | 89.4% |
| MMV031011 | 89.4% |
| MMV032967 | 87.8% |
| MMV032995 | 98.4% |
| MMV045105 | 102% |
| MMV047015 | 85.3% |
| MMV053220 | 97.9% |
| MMV054312 | 76.8% |
| MMV062221 | 112% |
| MMV063404 | 90.4% |
| MMV069458 | 94.1% |
| MMV084603 | 81.6% |
| MMV084864 | 100% |
| MMV085071 | 86.4% |
| MMV085210 | 88.2% |
| MMV085230 | 111% |
| MMV085499 | 112% |
| MMV090930 | 84.6% |
| MMV099637 | 95.3% |
| MMV102872 | 97.7% |

| Substance | Survival |
| --- | --- |
| MMV146306 | 96.2% |
| MMV153413 | 9.37% |
| MMV161996 | 108% |
| MMV188296 | 98% |
| MMV200748 | 100% |
| MMV202458 | 98.1% |
| MMV202553 | 100% |
| MMV228911 | 89.5% |
| MMV272144 | 105% |
| MMV392832 | 93.8% |
| MMV393144 | 85.6% |
| MMV393995 | 95.8% |
| MMV407539 | 98.9% |
| MMV407834 | 114% |
| MMV461553 | 7.21% |
| MMV495543 | 86.9% |
| MMV553002 | 66.4% |
| MMV560185 | 89.9% |
| MMV595321 | 98.2% |
| MMV611037 | 105% |
| MMV634140 | 84% |
| MMV637229 | 96.4% |
| MMV637953 | 117% |
| MMV652003 | 97.2% |
| MMV658988 | 74.9% |
| MMV658993 | 100% |
| MMV659004 | 100% |

Tested on: Mycobacteroides abscessus
Assay: as §1
Assay type: functional, organism-based
Parameters: conc 20 uM
Settings: ATCC19977

| Substance | Survival |
| --- | --- |
| MMV024937 | 103% |
| MMV026020 | 113% |
| MMV026313 | 100% |
| MMV026356 | 107% |
| MMV026468 | 105% |
| MMV026490 | 115% |
| MMV026550 | 111% |
| MMV028694 | 113% |
| MMV030734 | 111% |
| MMV031011 | 109% |
| MMV032967 | 104% |
| MMV032995 | 111% |
| MMV045105 | 113% |
| MMV047015 | 111% |
| MMV053220 | 115% |
| MMV054312 | 111% |
| MMV062221 | 114% |
| MMV063404 | 108% |
| MMV069458 | 102% |
| MMV084603 | 112% |
| MMV084864 | 101% |
| MMV085071 | 110% |
| MMV085210 | 115% |
| MMV085230 | 118% |
| MMV085499 | 106% |
| MMV090930 | 110% |
| MMV099637 | 98.4% |
| MMV102872 | 114% |

| Substance | Survival |
| --- | --- |
| MMV146306 | 107% |
| MMV153413 | 111% |
| MMV161996 | 103% |
| MMV188296 | 109% |
| MMV200748 | 108% |
| MMV202458 | 99.9% |
| MMV202553 | 109% |
| MMV228911 | 97.2% |
| MMV272144 | 110% |
| MMV392832 | 106% |
| MMV393144 | 103% |
| MMV393995 | 93.9% |
| MMV407539 | 103% |
| MMV407834 | 113% |
| MMV461553 | 103% |
| MMV495543 | 84.2% |
| MMV553002 | 113% |
| MMV560185 | 116% |
| MMV595321 | 117% |
| MMV611037 | 106% |
| MMV634140 | 110% |
| MMV637229 | 112% |
| MMV637953 | 145% |
| MMV652003 | 109% |
| MMV658988 | 101% |
| MMV658993 | 101% |
| MMV659004 | 112% |

Tested on: Mycobacterium tuberculosis
Assay: as §1
Assay type: functional, organism-based
Parameters: conc 20 uM
Settings: H37Rv

| Substance | Survival |
| --- | --- |
| MMV024937 | 88.4% |
| MMV026020 | 102% |
| MMV026313 | 82.9% |
| MMV026356 | 101% |
| MMV026468 | 95.9% |
| MMV026490 | 88.9% |
| MMV026550 | 88.2% |
| MMV028694 | 88.7% |
| MMV030734 | 82.6% |
| MMV031011 | 99.4% |
| MMV032967 | 92.6% |
| MMV032995 | 89.1% |
| MMV045105 | 107% |
| MMV047015 | 52.2% |
| MMV053220 | 90.6% |
| MMV054312 | 46.8% |
| MMV062221 | 103% |
| MMV063404 | 33.5% |
| MMV069458 | 11.9% |
| MMV084603 | 98.8% |
| MMV084864 | 84.2% |
| MMV085071 | 93.5% |
| MMV085210 | 82.8% |
| MMV085230 | 93.7% |
| MMV085499 | 90.8% |
| MMV090930 | 38.6% |
| MMV099637 | 109% |
| MMV102872 | 18.3% |

| Substance | Survival |
| --- | --- |
| MMV146306 | 96.1% |
| MMV153413 | 26.5% |
| MMV161996 | 119% |
| MMV188296 | 95% |
| MMV200748 | 103% |
| MMV202458 | 132% |
| MMV202553 | 83.4% |
| MMV228911 | 114% |
| MMV272144 | 85.8% |
| MMV392832 | 75.4% |
| MMV393144 | 92.6% |
| MMV393995 | 46.2% |
| MMV407539 | 85.3% |
| MMV407834 | 97% |
| MMV461553 | 42.2% |
| MMV495543 | 85.3% |
| MMV553002 | 34.8% |
| MMV560185 | 80.8% |
| MMV595321 | 25.4% |
| MMV611037 | 92.7% |
| MMV634140 | 81% |
| MMV637229 | 87% |
| MMV637953 | 102% |
| MMV652003 | 112% |
| MMV658988 | 4.93% |
| MMV658993 | 83.9% |
| MMV659004 | 6.84% |
